This note sets out measurements from paper PMC5352699, “Synthesis and in vitro antitumor activity of (1E,4E)-1-aryl-5-(2-((quinazolin-4-yl)oxy)phenyl)-1,4-pentadien-3-one derivatives” (Chemistry Central Journal, 2017).

Data set [1] relates to human breast cancer cell line Bcap-37. In words: MTT assay, Bcap-37 cells. Particulars: for inhibition at 10 µM: Bcap37, 10 μM, 72 h, read-out: Inhibition rates against different cells (%) Bcap-37; for IC50: Bcap37, 72 h after treatment. In kind it is cell-based. The method, then: (§1) The in vitro antitumor activity of the newly synthesized compounds 5a–5n were evaluated against a panel of three human cancer cell lines, including human gastric cancer cell line MGC-803, human prostate cancer cell line PC3, and human breast cancer cell line Bcap-37, and one normal cell line NIH3T3 (mouse embryo fibroblast cell line) by MTT method. Adriamycin (ADM) was chosen as a reference drug due to its availability and widespread use. Each experiment was repeated at least three times.
(§2) Human gastric cancer cell line MGC-803, human prostate cancer cell line PC3, and human breast cancer cell line Bcap-37 and one normal cell line NIH3T3 were obtained from Cell Bank of Type Culture Collection of Chinese Academy of Sciences (Shanghai, China). NIH3T3 was routinely maintained in a DMEM medium, while all the other cell lines were cultured in a 1640 medium. All the cells were grown in the medium supplemented with 10% FBS at 37 °C with 5% CO2.
(§3) The growth-inhibitory effects of the test compounds were determined on MGC-803, PC3, Bcap-37, and NIH3T3 cells. All cell types were seeded into 96-well plates at a density of 2 × 10^3 cells/well 100 μL of the proper culture medium and incubated with increasing concentrations of the compounds at 37 °C under cell culturing conditions. An MTT assay (Roche Molecular Biochemicals, 1465-007) was performed 72 h later according to the instructions provided by Roche. The precipitated formazan crystals were dissolved in SDS, and the absorbance was read at 595 nm with a microplate reader (BIO-RAD, model 680), which is directly proportional to the number of living cells in culture. The experiment was performed in triplicate. The percentage cytotoxicity was calculated using the formula. %Cytotoxicity=Controlabs-Blankabs-Testabs-Blankabs/Controlabs-Blankabs×100
A general note: Formazan colour is commonly taken as a measure of viable cells.

Data set [2] has as its system normal cell line NIH3T3 (mouse embryo fibroblast cell line). In words: MTT assay, NIH3T3 normal cells. Type of data set: cell-based. Particulars: 72 h, read-out: Inhibition rates against different cells (%) NIH3T3. The method, then: as §1, §2, §3
For data set [3], the system named is human gastric cancer cell line MGC-803. In words: MTT assay, MGC-803 cells. Type of data set: cell-based. Particulars: for inhibition at 10 µM: 72 h, read-out: Inhibition rates against different cells (%) MGC-803; for IC50: 72 h after treatment. The method, then: as §1, §2, §3
The test system of data set [4] is human prostate cancer cell line PC3. Put plainly: MTT assay, PC3 cells. In kind it is cell-based. Particulars: for inhibition at 10 µM: PC-3, 10 μM, 72 h, read-out: Inhibition rates against different cells (%) PC3; for IC50: PC-3, 72 h after treatment. The method, then: as §1, §2, §3

In the case of `COc1cccc2c1C(=O)c1c(O)c3c(c(O)c1C2=O)C[C@@](O)(C(=O)CO)C[C@@H]3O[C@H]1C[C@H](N)[C@H](O)[C@H](C)O1` [ADM, Adriamycin, reference compound], the inhibition – broadly, the drop in the measured response relative to a control, in per cent – at 10 µM in data set [1] was 94.5 ± 0.9%; in data set [2] it was 100 ± 0.7%; in data set [3] it was 97.5 ± 1.2%; in data set [4], 91.2 ± 0.4%. Moreover, the IC50 (in general, the concentration that inhibits the measured activity by half) in data set [1] stood at 1.9 ± 0.25 µM; in data set [3], 0.74 ± 0.24 µM; in data set [4], 1.01 ± 0.2 µM.
On to `Cc1ccc2ncnc(Oc3ccccc3/C=C/C(=O)/C=C/c3ccccc3F)c2c1` [Compound 5a, (1E,4E)-1-(2-fluorophenyl)-5-(2-((6-methylquinazolin-4-yl)oxy)phenyl)penta-1,4-dien-3-one], for which the inhibition at 10 µM in data set [1] came out at 44.1 ± 2.6%; in data set [2], 65.7 ± 1.3%; in data set [3], 71.9 ± 0.9%; in data set [4], 68.5 ± 2.3%. Moreover, the half-maximal inhibitory concentration (IC50) in data set [1] is 11.7 ± 0.39 µM; in data set [3], 7.69 ± 0.37 µM; in data set [4], 9.24 ± 0.46 µM.
Turning to `Cc1ccc2ncnc(Oc3ccccc3/C=C/C(=O)/C=C/c3ccccc3Cl)c2c1` [Compound 5b, (1E,4E)-1-(2-chlorophenyl)-5-(2-((6-methylquinazolin-4-yl)oxy)phenyl)penta-1,4-dien-3-one], the melting point (usually the temperature, or range, at which the solid turns liquid) fell in the range of 152 to 154 °C. In data set [1], the inhibition at 10 µM turned out to be 57.3 ± 2% and 10.1 ± 0.67 µM corresponded to half-maximal inhibition (IC50). The inhibition at 10 µM in data set [2] was 15.4 ± 1.5%. For the same molecule, in data set [3], the inhibition at 10 µM worked out at 83.5 ± 1.5% and half-maximal inhibition (IC50) was put at 5.2 ± 0.51 µM. Besides, in data set [4], the inhibition at 10 µM was found to be 78.7 ± 2.4% and the IC50 is 8.12 ± 0.46 µM.
`Cc1ccc2ncnc(Oc3ccccc3/C=C/C(=O)/C=C/c3ccc(Cl)cc3)c2c1` [Compound 5c, (1E,4E)-1-(4-chlorophenyl)-5-(2-((6-methylquinazolin-4-yl)oxy)phenyl)penta-1,4-dien-3-one] displayed a melting point of 173 to 176 °C. Further, in data set [1], the inhibition at 10 µM was 54.2 ± 1.1% and it took 9.34 ± 0.52 µM to reach half-maximal inhibition (IC50). Further, the inhibition at 10 µM in data set [2] worked out at 16.1 ± 2.7%. Moreover, in data set [3], the inhibition at 10 µM amounted to 79.2 ± 2.8% and the IC50 turned out to be 5.44 ± 0.45 µM. In data set [4], the inhibition at 10 µM amounted to 76.5 ± 1.7% and half-maximal inhibition (IC50) was put at 7.85 ± 0.32 µM.
In the case of `Cc1ccc2ncnc(Oc3ccccc3/C=C/C(=O)/C=C/c3cc([N+](=O)[O-])ccc3Cl)c2c1` [Compound 5d, (1E,4E)-1-(2-chloro-5-nitrophenyl)-5-(2-((6-methylquinazolin-4-yl)oxy)phenyl)penta-1,4-dien-3-one], the inhibition at 10 µM in data set [1] turned out to be 58.5 ± 1.3%; in data set [2], 71.9 ± 1.4%; in data set [3], 87.5 ± 0.2%; in data set [4], 86.3 ± 0.8%. Moreover, the values for the IC50 in data set [1], in data set [3] and in data set [4] were 7.52 ± 0.36 µM, 1.72 ± 0.22 µM and 2.68 ± 0.43 µM, respectively.
On to `Cc1ccc2ncnc(Oc3ccccc3/C=C/C(=O)/C=C/c3ccc(Cl)cc3Cl)c2c1` [Compound 5e, (1E,4E)-1-(2,4-dichlorophenyl)-5-(2-((6-methylquinazolin-4-yl)oxy)phenyl)penta-1,4-dien-3-one], for which the melting point is 211 to 214 °C. Also, in data set [1], the inhibition at 10 µM was 67.3 ± 3.9% and the IC50 was 9.6 ± 0.42 µM. The inhibition at 10 µM in data set [2] turned out to be 53.8 ± 1.8%. In addition, in data set [3], the inhibition at 10 µM amounted to 87 ± 1% and half-maximal inhibition (IC50) was put at 1.89 ± 0.26 µM. In data set [4], the inhibition at 10 µM turned out to be 75.2 ± 7.8% and half-maximal inhibition (IC50) required 4.71 ± 0.36 µM.
For the molecule `COc1ccc(OC)c(/C=C/C(=O)/C=C/c2ccccc2Oc2ncnc3ccc(C)cc23)c1` [Compound 5g], the melting point lay within 122 to 123 °C. In data set [1], the inhibition at 10 µM is 74.9 ± 2% and the midpoint of inhibition, the IC50, lay at 5.61 ± 0.5 µM. In addition, the inhibition at 10 µM in data set [2] was 74.3 ± 0.9%. Also, in data set [3], the inhibition at 10 µM came to 85.9 ± 1.2% and the half-inhibitory concentration (IC50) amounted to 2.02 ± 0.37 µM. Moreover, in data set [4], the inhibition at 10 µM was found to be 83.1 ± 2.8% and inhibition was half-maximal at 2.18 ± 0.31 µM (IC50).
As for `Cc1cccc2c(Oc3ccccc3/C=C/C(=O)/C=C/c3ccccc3F)ncnc12` [Compound 5h, (1E,4E)-1-(2-fluorophenyl)-5-(2-((8-methylquinazolin-4-yl)oxy)phenyl)penta-1,4-dien-3-one], the inhibition at 10 µM came to 36.6 ± 2.7% in data set [1], 13.4 ± 2.2% in data set [2], 62.3 ± 1.4% in data set [3] and 43.7 ± 12.1% in data set [4]. In addition, the concentration for half-maximal inhibition (IC50) in data set [1] was determined as 15.6 ± 0.51 µM; in data set [3], 9.06 ± 0.4 µM; in data set [4], 11.7 ± 0.48 µM.
Regarding `Cc1cccc2c(Oc3ccccc3/C=C/C(=O)/C=C/c3ccccc3Cl)ncnc12` [Compound 5i, (1E,4E)-1-(2-chlorophenyl)-5-(2-((8-methylquinazolin-4-yl)oxy)phenyl)penta-1,4-dien-3-one], the melting point lay in the range of 152 to 154 °C. For the same molecule, in data set [1], the inhibition at 10 µM stood at 47.1 ± 2.6% and the IC50 was 10.7 ± 0.62 µM. The inhibition at 10 µM in data set [2] was determined as 14.4 ± 2.6%. Besides, in data set [3], the inhibition at 10 µM was found to be 79.4 ± 2.4% and the 50% inhibitory concentration (IC50) stood at 7.78 ± 0.48 µM. In data set [4], the inhibition at 10 µM worked out at 65.1 ± 2.6% and it took 9.36 ± 0.52 µM to reach half-maximal inhibition (IC50).
`Cc1cccc2c(Oc3ccccc3/C=C/C(=O)/C=C/c3ccc(Cl)cc3)ncnc12` [Compound 5j, (1E,4E)-1-(4-chlorophenyl)-5-(2-((8-methylquinazolin-4-yl)oxy)phenyl)penta-1,4-dien-3-one]: the melting point lay within 161 to 163 °C. In data set [1], the inhibition at 10 µM is 45.4 ± 2.2% and the IC50 worked out at 12.1 ± 0.31 µM. The inhibition at 10 µM in data set [2] amounted to 41 ± 2.1%. Besides, in data set [3], the inhibition at 10 µM turned out to be 76.3 ± 0.8% and the IC50 came to 6.42 ± 0.44 µM. Also, in data set [4], the inhibition at 10 µM is 71.9 ± 3.1% and the IC50 stood at 8.64 ± 0.47 µM.
`Cc1cccc2c(Oc3ccccc3/C=C/C(=O)/C=C/c3cc([N+](=O)[O-])ccc3Cl)ncnc12` [Compound 5k, (1E,4E)-1-(2-chloro-5-nitrophenyl)-5-(2-((8-methylquinazolin-4-yl)oxy)phenyl)penta-1,4-dien-3-one] had a melting point of 198 to 200 °C. Further, in data set [1], the inhibition at 10 µM was determined as 60.2 ± 1.4% and the IC50 came out at 8.92 ± 0.58 µM. Besides, the inhibition at 10 µM in data set [2] worked out at 3 ± 2.3%. In addition, in data set [3], the inhibition at 10 µM turned out to be 82.1 ± 3% and the IC50 came out at 2.94 ± 0.32 µM. In addition, in data set [4], the inhibition at 10 µM turned out to be 76.3 ± 2.5% and the IC50 stood at 8.12 ± 0.46 µM.
The molecule `Cc1cccc2c(Oc3ccccc3/C=C/C(=O)/C=C/c3ccc(Cl)cc3Cl)ncnc12` [Compound 5l, (1E,4E)-1-(2,4-dichlorophenyl)-5-(2-((8-methylquinazolin-4-yl)oxy)phenyl)penta-1,4-dien-3-one] returned a melting point of 175 to 178 °C. Also, in data set [1], the inhibition at 10 µM was 54.6 ± 1% and it took 9.83 ± 0.46 µM to reach half-maximal inhibition (IC50). In data set [2], the inhibition at 10 µM amounted to 0.8 ± 1.6%. Besides, in data set [3], the inhibition at 10 µM is 61.2 ± 1.3% and it took 4.33 ± 0.35 µM to reach half-maximal inhibition (IC50). Moreover, in data set [4], the inhibition at 10 µM is 55.7 ± 1.5% and half-maximal inhibition (IC50) required 9.08 ± 0.52 µM.
Molecule `Cc1cccc2c(Oc3ccccc3/C=C/C(=O)/C=C/c3c(Cl)cccc3Cl)ncnc12` [Compound 5m, (1E,4E)-1-(2,6-dichlorophenyl)-5-(2-((8-methylquinazolin-4-yl)oxy)phenyl)penta-1,4-dien-3-one] yielded a melting point of 161 to 163 °C. For the same molecule, in data set [1], the inhibition at 10 µM was found to be 66.4 ± 1.5% and half-maximal inhibition (IC50) required 7.82 ± 0.39 µM. Besides, the inhibition at 10 µM in data set [2] was 12.4 ± 2.5%. In data set [3], the inhibition at 10 µM was found to be 81.1 ± 1.7% and the IC50 was 2.05 ± 0.39 µM. In data set [4], the inhibition at 10 µM was 81.2 ± 2.8% and the IC50 is 3.79 ± 0.47 µM.
As for `COc1ccc(OC)c(/C=C/C(=O)/C=C/c2ccccc2Oc2ncnc3c(C)cccc23)c1` [Compound 5n, (1E,4E)-1-(2,5-dimethoxyphenyl)-5-(2-((8-methylquinazolin-4-yl)oxy)phenyl)penta-1,4-dien-3-one], the melting point lay in the range of 176 to 178 °C. Moreover, in data set [1], the inhibition at 10 µM is 55.8 ± 1.1% and the IC50 is 8.7 ± 0.54 µM. For the same molecule, in data set [2], the inhibition at 10 µM was 29.6 ± 2.4%. Besides, in data set [3], the inhibition at 10 µM is 78.7 ± 2.7% and the IC50 was determined as 3.33 ± 0.42 µM. Also, in data set [4], the inhibition at 10 µM was determined as 69 ± 1.7% and the concentration for half-maximal inhibition (IC50) was 4.16 ± 0.43 µM.
